Patent US10077261B2, “Imidazolin-5-one derivative useful as FASN inhibitors for the treatment of cancer” (Janssen Pharmaceutica NV, priority 2012, dated 2018)

Experiments:
[1] = target: T1, hFASN enzyme (full length) (Homo sapiens, UniProt P49327); assay: Fatty Acid Synthase (FASN) inhibition scintillation proximity assay; assay type: biochemical; settings: for inhibition at 10 µM: read-out: Human FASN % inhibition @ 10 μM, 10 μM test compound; for IC50: read-out: Human FASN pIC50 (converted)
T1 construct: 10 μL hFASN enzyme (full length, 300 ng, purified in house); made in house
Procedure, shortened: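 Read-out relies on hydrophobic ³H-palmitate product, formed from ³H-acetyl-CoA and malonyl-CoA, binding streptavidin imaging beads, measured at 610±20 nm after at least 24 h. Full-length enzyme (300 ng) in phosphate buffer pH 7.5 with DTT; eight compound concentrations, 0.01–30 μM.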

A2780 ovarian cells [2] = assay: A2780 ovarian cell proliferation assay in lipid reduced medium, with palmitate (MTT); assay type: cell-based; settings: Homo sapiens, A2780, 96 h; read-out: pIC50 A2780 Ovarian Cell, With Palmitate (converted)
Procedure, shortened: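 In this palmitate-supplemented format, compound dilutions (30 μM down to 0.01 μM) are added to cells in lipid-reduced serum with 25 μM palmitate, 0.2% fatty-acid-free BSA and 0.25% ethanol. After four days (96 h) MTT absorbance at 544 nm is recorded and fitted by minimum sum of squares.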

A2780 ovarian cells [3] = assay: A2780 ovarian cell proliferation assay in lipid reduced medium, without palmitate (MTT); assay type: cell-based; settings: Homo sapiens, A2780, 96 h; read-out: pIC50 A2780 Ovarian Cell, Without Palmitate (converted)
[4] = test system: PC-3M-Luc-C6 prostate cells; assay: In vitro PC-3M-Luc-C6 prostate cell proliferation assay in lipid reduced medium; assay type: cell-based; settings: 96 h, read-out: pIC50 PC-3M-Luc-C6 prostate cell (converted)
Method: PC-3M-Luc-C6 prostate cells were obtained from Xenogen Corporation. Cells were maintained in MEM supplemented with 10% Fetal Calf Serum (FCS, Hyclone), 2 mM glutamine, 1 mM sodium pyruvate, 1% BME vitamins (available from for example, Sigma Aldrich), 0.1 mM non Essential Amino Acid and 50 μg/ml Gentamicin. The cells were passaged twice a week.
The next day 10 μl test compound/DMSO diluted in medium was added (3E-5M, 1E-5M, 3E-6M, 1E-6M, 3E-7M, 1E-7M, 3E-8M, 1E-8M final concentration). Compounds were tested in duplicate. After 96 h incubation at 37° C., 5% CO2 25 μl ATP-glow mix was added. The plate was incubated for 30 min at 37° C. and luminescence was measured with the Envision.
(§1) Analysis: Determination of pIC50 Values
(§2) pIC50 values were calculated as follows.
(§3) where mLC and mHC are the means of the low control wells and high control wells on the plate, after manual exclusion of outliers. The relation between the % Controlmin values and concentration was fitted to a 4-parameter logistic curve using a non-linear least squares regression method to determine the pIC50 value. Outlying data points were excluded manually to get a correct fit. The pIC50 corresponds to −log 10(IC50), if the IC50 is expressed in molar units (http://www.ncbi.nlm.nih.gov/books/NBK91994). The IC50 parameter was always determined by non-linear regression, but one or more of the other parameters may have been held fixed on a relevant input value, such as 0 for the bottom values.

[5] = target: Fatty Acid Synthase Keto-reductase Domain (FASN KR) (Homo sapiens, UniProt P49327); assay: Fatty Acid Synthase keto-reductase domain (FASN KR) inhibition, NADPH oxidation at 340 nm
Method: After 20 minutes incubation at room temperature the plate was measured again (T2).
The decrease in absorbance was calculated as (Absorbance before incubation T1)−(Absorbance following incubation T2).
A plot of Controlmin versus test compound concentration was fitted to a 4-parameter logistic curve using a non-linear least squares regression method.

[6] = test system: LNCaP-Vancouver prostate cells; assay: In vitro LNCaP Vancouver prostate cell proliferation assay in lipid reduced medium; assay type: cell-based; settings: read-out: pIC50 LNCaP_Vancouver prostate cell (converted)
Method: LNCaP-Vancouver prostate cells were obtained from the Vancouver Prostate Cancer Centre. Cells were maintained in RPMI-1640, 10% Fetal Calf Serum (FCS, Hyclone), 2 mM glutamine and 50 μg/ml Gentamicin.
For the proliferation experiment 1500 LNCaP-Vancouver cells per well were seeded in a 384-well black with clear bottom plate (costar 3712BC) in 40 μl RPMI-1640, 10% Lipid reduced serum (LRS, Hyclone), 50 μg/ml Gentamicin and 2 mM Glutamine and incubated at 37° C., 5% CO2. The next day 10 μl of test compound/DMSO diluted in medium was added (3E-5M, 1E-5M, 3E-6M, 1E-6M, 3E-7M, 1E-7M, 3E-8M, 1E-8M final concentration). Compounds were tested in duplicate. After 96 h incubation at 37° C., 5% CO2 25 μl ATP-glow mix was added. The plate was incubated for 30 min at 37° C. and luminescence was measured with the Envision.
as §1, §2, §3
For dose response curves with FASN inhibitors in LNCaP-Vancouver or PC-3M-Luc-C6 cells the curves bottom out around 30 to 40% of the control value. A standard fit PL2, forcing the lower bound to this level was used.
Representative compounds of the present invention were tested according to the procedure as described in Biological Example 4a and 4b above, with results as listed in Table 9, below.

Chain of Fatty Acid Synthase Keto-reductase Domain (FASN KR) (P49327 whole entry, the tested form may be a part): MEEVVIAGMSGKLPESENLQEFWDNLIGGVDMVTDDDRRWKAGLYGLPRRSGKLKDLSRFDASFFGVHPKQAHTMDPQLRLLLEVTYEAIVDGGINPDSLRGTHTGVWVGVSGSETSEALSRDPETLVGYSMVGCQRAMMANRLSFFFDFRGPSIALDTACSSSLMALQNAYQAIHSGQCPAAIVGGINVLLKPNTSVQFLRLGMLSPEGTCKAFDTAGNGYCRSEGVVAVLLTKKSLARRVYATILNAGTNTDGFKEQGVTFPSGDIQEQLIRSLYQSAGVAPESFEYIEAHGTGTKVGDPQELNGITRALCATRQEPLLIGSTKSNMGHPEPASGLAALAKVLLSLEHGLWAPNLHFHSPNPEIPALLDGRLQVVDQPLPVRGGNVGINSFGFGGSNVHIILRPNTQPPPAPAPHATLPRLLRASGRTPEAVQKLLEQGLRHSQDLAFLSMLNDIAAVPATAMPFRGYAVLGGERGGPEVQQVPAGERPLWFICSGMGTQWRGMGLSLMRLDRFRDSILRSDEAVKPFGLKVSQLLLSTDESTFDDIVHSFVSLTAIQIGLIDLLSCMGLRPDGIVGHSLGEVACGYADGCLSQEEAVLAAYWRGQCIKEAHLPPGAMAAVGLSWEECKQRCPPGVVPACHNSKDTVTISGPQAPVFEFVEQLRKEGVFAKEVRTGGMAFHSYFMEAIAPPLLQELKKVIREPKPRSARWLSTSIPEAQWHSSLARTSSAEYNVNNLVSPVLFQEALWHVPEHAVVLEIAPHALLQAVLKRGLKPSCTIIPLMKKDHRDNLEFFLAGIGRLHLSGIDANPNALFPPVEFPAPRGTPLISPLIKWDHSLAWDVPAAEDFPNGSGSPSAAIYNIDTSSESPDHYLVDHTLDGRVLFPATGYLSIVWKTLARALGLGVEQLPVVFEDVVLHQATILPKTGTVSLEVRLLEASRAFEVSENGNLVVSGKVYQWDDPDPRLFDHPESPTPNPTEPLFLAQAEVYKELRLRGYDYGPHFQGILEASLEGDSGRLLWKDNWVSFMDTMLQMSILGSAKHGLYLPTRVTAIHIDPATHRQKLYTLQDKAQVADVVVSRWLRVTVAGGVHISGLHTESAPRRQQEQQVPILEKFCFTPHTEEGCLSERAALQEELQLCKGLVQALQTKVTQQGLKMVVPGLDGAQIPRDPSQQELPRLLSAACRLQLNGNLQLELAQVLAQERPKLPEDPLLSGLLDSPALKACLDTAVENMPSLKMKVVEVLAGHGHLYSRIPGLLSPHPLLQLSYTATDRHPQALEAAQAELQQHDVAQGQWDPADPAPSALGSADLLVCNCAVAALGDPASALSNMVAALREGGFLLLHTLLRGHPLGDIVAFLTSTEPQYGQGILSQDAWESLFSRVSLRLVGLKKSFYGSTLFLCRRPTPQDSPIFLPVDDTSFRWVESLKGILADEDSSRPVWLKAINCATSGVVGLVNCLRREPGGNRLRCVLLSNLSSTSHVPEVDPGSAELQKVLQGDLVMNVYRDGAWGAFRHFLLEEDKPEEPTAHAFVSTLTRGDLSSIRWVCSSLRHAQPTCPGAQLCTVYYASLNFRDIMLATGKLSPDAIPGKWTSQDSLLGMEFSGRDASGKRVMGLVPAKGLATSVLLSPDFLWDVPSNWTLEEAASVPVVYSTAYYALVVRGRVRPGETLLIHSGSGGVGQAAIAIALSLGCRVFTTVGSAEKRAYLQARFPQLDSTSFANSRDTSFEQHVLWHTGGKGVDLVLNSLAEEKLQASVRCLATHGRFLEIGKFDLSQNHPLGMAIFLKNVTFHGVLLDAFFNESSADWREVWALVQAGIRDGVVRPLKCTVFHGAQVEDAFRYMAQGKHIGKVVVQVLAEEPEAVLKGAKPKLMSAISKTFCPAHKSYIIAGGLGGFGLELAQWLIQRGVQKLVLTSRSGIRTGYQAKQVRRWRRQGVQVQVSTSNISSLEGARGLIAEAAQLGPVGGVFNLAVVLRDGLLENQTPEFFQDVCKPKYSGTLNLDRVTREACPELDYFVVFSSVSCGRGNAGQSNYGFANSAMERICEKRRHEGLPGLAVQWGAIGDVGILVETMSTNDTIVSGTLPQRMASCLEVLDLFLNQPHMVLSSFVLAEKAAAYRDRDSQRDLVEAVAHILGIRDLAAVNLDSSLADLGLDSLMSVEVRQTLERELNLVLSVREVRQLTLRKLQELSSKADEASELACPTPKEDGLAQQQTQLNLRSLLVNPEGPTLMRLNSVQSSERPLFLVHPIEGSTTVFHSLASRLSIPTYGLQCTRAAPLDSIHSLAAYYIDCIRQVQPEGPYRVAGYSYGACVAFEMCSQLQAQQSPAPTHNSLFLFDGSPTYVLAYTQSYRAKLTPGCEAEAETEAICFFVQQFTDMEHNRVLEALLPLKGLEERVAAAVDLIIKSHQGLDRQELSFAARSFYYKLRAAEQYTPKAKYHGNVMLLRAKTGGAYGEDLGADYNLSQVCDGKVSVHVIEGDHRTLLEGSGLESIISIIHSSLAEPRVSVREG
T1 sequence (P49327 whole entry): as the sequence (P49327 whole entry, the tested form may be a part) above

| SMILES | inhibition at 10 µM [1] [%] | IC50 [1] [nM] | IC50 (A2780 ovarian cells [2]) [nM] | IC50 (A2780 ovarian cells [3]) [nM] | IC50 [4] [nM] | IC50 [5] [nM] | IC50 [6] [nM] |
| --- | --- | --- | --- | --- | --- | --- | --- |
| Cn1ncc2cc(-c3ccc(C4=NC5(CC5)C(=O)N4C[C@@H]4CCN(C(=O)C5CC5)C4)cc3F)ccc21 [compound 405, 6-{[(3R)-1-(Cyclopropylcarbonyl)pyrrolidin-3-yl]methyl}-5-[3-fluoro-4-(1-methyl-1H-indazol-5-yl)phenyl]-4,6-diazaspiro[2.4]hept-4-en-7-one] | – | – | > 10000 | 479 | 457 | – | – |
| Cc1cc(-c2ccc3c(cnn3C)c2)ccc1C1=NC2(CC2)C(=O)N1CC1CN(C(=O)C2(O)CC2)C1 [compound 498, 6-({1-[(1-Hydroxycyclopropyl)carbonyl]-azetidin-3-yl}methyl)-5-[2-methyl-4-(1-methyl-1H-indazol-5-yl)phenyl]-4,6-diazaspiro[2.4]hept-4-en-7-one] | 99 | – | – | – | 234 | – | – |
| Cc1cc(-c2ccc(C#N)cc2F)ccc1C1=NC2(CC2)C(=O)N1CC1CN(C(=O)C2(C)CC2)C1 [compound 580] | 108 | 123 | > 10000 | 56.2 | – | 603 | 759 |
| Cc1cc(-c2cccc(SC3CC3)c2)ccc1C1=NC2(CC2)C(=O)N1C[C@@H]1CCN(C(=O)C2CC2)C1 [compound 642, 6-{[(3R)-1-(Cyclopropylcarbonyl)pyrrolidin-3-yl]methyl}-5-[3′-(cyclopropylsulfanyl)-3-methylbiphenyl-4-yl]-4,6-diazaspiro[2.4]hept-4-en-7-one] | 99 | 219 | > 10000 | ~3800 | – | 776 | 6170 |
| Cn1cc2cc(-c3ccc(C4=NC5(CC5)C(=O)N4CC4CN(C(=O)C5CC5)C4)c(F)c3)ccc2n1 [compound 644, 6-{[1-(Cyclopropylcarbonyl)azetidin-3-yl]methyl}-5-[2-fluoro-4-(2-methyl-2H-indazol-5-yl)phenyl]-4,6-diazaspiro[2.4]hept-4-en-7-one] | 97 | 178 | > 10000 | 162 | – | 1450 | 2820 |
| N#Cc1ccc2sc(-c3ccc(C4=NC5(CC5)C(=O)N4CC4CN(C(=O)C5CC5)C4)c(F)c3)nc2c1 [compound 652, 2-[4-(6-{[1-(Cyclopropylcarbonyl)azetidin-3-yl]methyl}-7-oxo-4,6-diazaspiro[2.4]hept-4-en-5-yl)-3-fluorophenyl]-1,3-benzothiazole-5-carbonitrile] | 97 | 186 | > 6170 | 174 | – | 347 | 1200 |
| O=C(C1CC1)N1CC[C@@H](CN2C(=O)C3(CCOCC3)N=C2c2ccc(-c3ccc4occc4c3)cc2)C1 [compound 667, 2-[4-(1-Benzofuran-5-yl)phenyl]-3-{[(3R)-1-(cyclopropylcarbonyl)pyrrolidin-3-yl]methyl}-8-oxa-1,3-diazaspiro[4.5]dec-1-en-4-one] | 97 | 155 | > 10000 | ~1000 | – | 339 | 1780 |
| O=C([C@H]1CCCO1)N1CC(CN2C(=O)C3(CCOC3)N=C2c2ccc(-c3ccc4cccnc4c3)cc2)C1 (stereo partly drawn) [compound 716, 2-(4-Quinolin-7-ylphenyl)-3-({1-[(2R)-tetrahydro-furan-2-ylcarbonyl]azetidin-3-yl}methyl)-7-oxa-1,3-diazaspiro[4.4]non-1-en-4-one] | 88 | 398 | > 10000 | 513 | – | 1050 | 5500 |
| O=C(C1CC1)N1CC[C@@H](CN2C(=O)C3(CCCC3)N=C2c2ccc(-c3cnc4[nH]ccc4c3)cc2F)C1 [compound 881, (R)-3-((1-(cyclopropanecarbonyl)pyrrolidin-3-yl)methyl)-2-(2-fluoro-4-(1H-pyrrolo[2,3-b]pyridin-5-yl)phenyl)-1,3-diazaspiro[4.4]non-1-en-4-one] | 101 | 107 | > 10000 | 240 | – | 316 | 1320 |

Continued by falling IC50 [5], values first:

| inhibition at 10 µM [1] [%] | IC50 [1] [nM] | IC50 (A2780 ovarian cells [2]) [nM] | IC50 (A2780 ovarian cells [3]) [nM] | IC50 [4] [nM] | IC50 [5] [nM] | IC50 [6] [nM] | SMILES |
| --- | --- | --- | --- | --- | --- | --- | --- |
| 102 | 151 | > 10000 | 170 | – | 309 | 1350 | Cc1cc(-c2cccc(NC(=O)C3CC3)c2)ccc1C1=NC2(CC2)C(=O)N1C[C@@H]1CCN(C(=O)C2CC2)C1 [compound 614, N-[4′-(6-{[(3R)-1-(Cyclopropylcarbonyl)pyrrolidin-3-yl]methyl}-7-oxo-4,6-diazaspiro[2.4]hept-4-en-5-yl)-3′-methylbiphenyl-3-yl]cyclopropanecarboxamide] |
| 105 | 51.3 | > 10000 | 120 | 112 | 251 | – | Cc1cc2cc(-c3ccc(C4=NC5(CC5)C(=O)N4CC4CN(C(=O)C5CC5)C4)c(C)c3)ccc2[nH]1 [compound 263, 6-((1-(cyclopropanecarbonyl)azetidin-3-yl)methyl)-5-(2-methyl-4-(2-methyl-1H-indol-5-yl)phenyl)-4,6-diazaspiro[2.4]hept-4-en-7-one] |
| 98 | 115 | > 10000 | ~214 | – | 251 | 851 | CC(C)N1CCC2(CC1)N=C(c1ccc(-c3ccc4[nH]ccc4c3)cc1)N(C[C@@H]1CCN(C(=O)C3CC3)C1)C2=O [compound 744, 3-{[(3R)-1-(Cyclopropylcarbonyl)pyrrolidin-3-yl]methyl}-2-[4-(1H-indol-5-yl)phenyl]-8-(1-methylethyl)-1,3,8-triazaspiro[4.5]dec-1-en-4-one] |
| 98 | 135 | > 10000 | 89.1 | – | 166 | 724 | O=C(C1CC1)N1CC[C@@H](CN2C(=O)C3(CCN(C(=O)C(F)(F)F)CC3)N=C2c2ccc(-c3ccc4[nH]ccc4c3)cc2)C1 [compound 751, 3-{[(3R)-1-(Cyclopropylcarbonyl)pyrrolidin-3-yl]methyl}-2-[4-(1H-indol-5-yl)phenyl]-8-(trifluoroacetyl)-1,3,8-triazaspiro[4.5]dec-1-en-4-one] |
| 104 | 70.8 | > 10000 | 95.5 | – | 158 | 851 | CS(=O)(=O)N1CCC2(CC1)N=C(c1ccc(-c3ccc4[nH]ccc4c3)cc1)N(C[C@@H]1CCN(C(=O)C3CC3)C1)C2=O [compound 745, 3-{[(3R)-1-(Cyclopropylcarbonyl)pyrrolidin-3-yl]methyl}-2-[4-(1H-indol-5-yl)phenyl]-8-(methylsulfonyl)-1,3,8-triazaspiro[4.5]dec-1-en-4-one] |
| 109 | 45.7 | > 10000 | 977 | ~661 | 89.1 | – | O=C(C1CC1)N1CC[C@@H](CN2C(=O)C3(CCCC3)N=C2c2ccc(-c3ccc4occc4c3)cc2)C1 [compound 2, 2-[4-(1-Benzofuran-5-yl)phenyl]-3-{[(3R)-1-(cyclopropylcarbonyl)pyrrolidin-3-yl]methyl-}3-diazaspiro[4.4]non-1-en-4-one] |
